Test results from patent US20100286145A1, “ISOPHTHALAMIDE DERIVATIVES INHIBITING BETA-SECRETASE ACTIVITY” (CoMentis, Inc., priority 2007, published 2010).
Read-outs that look alike come from different tables or passages of the source.

Columns and labels:
[1] = molecular target: memapsin 2 (Homo sapiens, UniProt P56817); assay: Inhibition of memapsin 2 beta-secretase activity (fluorogenic substrate FS-2); format: biochemical; conditions: memapsin 2, pH 4, 37° C., read-out: M2Ki
Outline: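 Memapsin 2 pre-incubated 20 min with compound at pH 4, 37° C, then FS-2 substrate (MCA-SEVNLDAEFK-DNP, APP Swedish cleavage site) added. Rate of fluorescence increase compared with uninhibited controls, fitted to a tight-binding inhibition model.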

[2] = system: Aβ production in Chinese hamster ovary cells that over-express human APP695 with the London and Swedish mutations; assay: Cellular Aβ IC50 determination (Aβ40 sandwich ELISA); format: cell-based; conditions: Cricetulus griseus; cellular Aβ production; read-out: IC50
Description: The potency of compounds against memapsin 2 activity was determined in a cellular assay of Aβ production. […] Chinese hamster ovary cells that over-express human APP695 with the London and Swedish mutations were seeded in multi-well plates at 10% confluency. Compounds are dissolved in DMSO to concentrations near 1 mM, and diluted into culture media to a final concentration near 4 μM (final 0.4% DMSO). […] Aliquots were removed and assayed for Aβ40 content using a sandwich ELISA (BioSource International). Amount of Aβ40 over the range of concentration of compounds, relative to control incubations, were fit to a 4-parameter IC50 model.

Chain of memapsin 2 (P56817 46-501): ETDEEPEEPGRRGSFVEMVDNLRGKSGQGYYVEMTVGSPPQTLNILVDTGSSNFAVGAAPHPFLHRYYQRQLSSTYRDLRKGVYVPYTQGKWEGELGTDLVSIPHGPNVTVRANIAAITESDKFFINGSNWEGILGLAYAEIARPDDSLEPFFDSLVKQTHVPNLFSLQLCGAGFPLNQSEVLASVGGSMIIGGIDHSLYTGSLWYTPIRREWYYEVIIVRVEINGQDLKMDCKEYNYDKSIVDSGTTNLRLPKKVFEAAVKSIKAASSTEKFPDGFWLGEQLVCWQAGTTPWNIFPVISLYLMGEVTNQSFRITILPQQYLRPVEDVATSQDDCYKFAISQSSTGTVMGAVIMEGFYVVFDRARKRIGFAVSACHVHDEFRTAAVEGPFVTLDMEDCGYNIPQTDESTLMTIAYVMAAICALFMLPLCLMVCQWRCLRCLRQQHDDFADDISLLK

SMILES | Ki ([1]; 20 minutes pre-incubation) [nM] | IC50 [2] [nM] | Ki ([1]; fluorogenic substrate FS-2) [nM]
COc1cccc(CNC[C@@H](O)[C@H](Cc2ccccc2)NC(=O)c2cc(C(=O)NCc3nc(C)cs3)cc(N3CCCC3=O)c2)c1 [Compound 199, N1-((2S,3R)-3-hydroxy-4-(3-methoxybenzylamino)-1-phenylbutan-2-yl)-N3-((4-methylthiazol-2-yl)methyl)-5-(2-oxopyrrolidin-1-yl)isophthalamide] | > 501 | > 5000 | 
COc1cccc([C@@H](C)NC[C@@H](O)[C@H](Cc2ccccc2)NC(=O)c2cc(C(=O)N[C@H](C)c3ccccc3)cc(N(C)S(C)(=O)=O)c2)c1 [Compound 201, N1-((2S,3R)-3-hydroxy-4-((R)-1-(3-methoxyphenyl)ethylamino)-1-phenylbutan-2-yl)-5-(N-methylmethylsulfonamido)-N3-((R)-1-phenylethyl)isophthalamide] | < 300 | < 1000 | 
C[C@@H](NC(=O)c1cc(C(=O)N[C@@H](Cc2ccccc2)[C@H](O)CNCc2cccc(C(C)(C)C)c2O)cc(N(C)S(C)(=O)=O)c1)c1ccccc1 [Compound 79, N1-((2S,3R)-4-(3-tert-butyl-2-hydroxybenzylamino)-3-hydroxy-1-phenylbutan-2-yl)-5-(N-methylmethylsulfonamido)-N3-((R)-1-phenylethyl)isophthalamide] | < 300 | < 1000 | 
COc1cc(C(=O)N[C@@H](Cc2ccccc2)[C@H](O)CNCc2ccnc(C(C)C)c2)cc(C(=O)N(C)Cc2nc(C)cs2)c1 [Compound 53, N1-((2S,3R)-3-hydroxy-4-((2-isopropylpyridin-4-yl)methylamino)-1-phenylbutan-2-yl)-5-methoxy-N3-methyl-N3-((4-methylthiazol-2-yl)methyl)isophthalamide] | < 300 | < 1000 | 
Cc1csc(CN(C)C(=O)c2cccc(C(=O)N[C@@H](Cc3ccccc3)[C@H](O)CNCc3cc(Cl)ccc3F)c2)n1 [Compound 261, N1-((2S,3R)-4-(5-chloro-2-fluorobenzylamino)-3-hydroxy-1-phenylbutan-2-yl)-N3-methyl-N3-((4-methylthiazol-2-yl)methyl)isophthalamide] |  | < 1000 | < 300
CC(=O)c1cc(C(=O)N[C@@H](Cc2ccccc2)[C@H](O)CNCc2cccc(C(F)(F)F)c2)cc(C(=O)N(C)Cc2nc(C)cs2)c1 [Compound 244, 5-acetyl-N1-((2S,3R)-3-hydroxy-1-phenyl-4-(3-(trifluoromethyl)benzylamino)butan-2-yl)-N3-methyl-N3-((4-methylthiazol-2-yl)methyl)isophthalamide] |  | < 1000 | < 300
Cc1csc(CN(C)C(=O)c2cccc(C(=O)N[C@@H](Cc3ccccc3)[C@H](O)CNCc3cccc(I)c3)c2)n1 [Compound 97, N1-((2S,3R)-3-hydroxy-4-(3-iodobenzylamino)-1-phenylbutan-2-yl)-N3-methyl-N3-((4-methylthiazol-2-yl)methyl)isophthalamide] | < 300 | < 1000 | 
CC(=O)Nc1cc(CNC[C@@H](O)[C@H](Cc2ccccc2)NC(=O)c2cccc(C(=O)N(C)Cc3nc(C)cs3)c2)cc(C(C)C)c1 [Compound 193, N1-((2S,3R)-4-(3-acetamido-5-isopropylbenzylamino)-3-hydroxy-1-phenylbutan-2-yl)-N3-methyl-N3-((4-methylthiazol-2-yl)methyl)isophthalamide] | < 300 | < 1000 | 
COc1cccc(CNC[C@@H](O)[C@H](Cc2ccccc2)NC(=O)c2cc(C(N)=O)cc(C(=O)N(C)Cc3nc(C)cs3)c2)c1 [Compound 103, N1-((2S,3R)-3-hydroxy-4-(3-methoxybenzylamino)-1-phenylbutan-2-yl)-N3-methyl-N3-((4-methylthiazol-2-yl)methyl)benzene-1,3,5-tricarboxamide] | < 300 | < 1000 | 
Cc1csc(CN(C)C(=O)c2cccc(C(=O)N[C@@H](Cc3ccccc3)[C@H](O)CNCc3cc(OCc4ccccc4)cc(C(C)C)c3)c2)n1 [Compound 116, N1-((2S,3R)-4-(3-(benzyloxy)-5-isopropylbenzylamino)-3-hydroxy-1-phenylbutan-2-yl)-N3-methyl-N3-((4-methylthiazol-2-yl)methyl)isophthalamide] | < 300 | < 1000 | 
CCN(CC)c1cc(C(=O)N[C@@H](Cc2ccccc2)[C@H](O)CNCc2cccc(OC)c2)cc(C(=O)N(C)Cc2nc(C)cs2)c1 [Compound 169, 5-(diethylamino)-N1-((2S,3R)-3-hydroxy-4-(3-methoxybenzylamino)-1-phenylbutan-2-yl)-N3-methyl-N3-((4-methylthiazol-2-yl)methyl)isophthalamide] | < 300 | < 1000 | 
Cc1csc(CN(C)C(=O)c2cccc(C(=O)N[C@@H](Cc3ccccc3)[C@H](O)CNCc3cccc(O)c3)c2)n1 [Compound 73, N1-((2S,3R)-3-hydroxy-4-(3-hydroxybenzylamino)-1-phenylbutan-2-yl)-N3-methyl-N3-((4-methylthiazol-2-yl)methyl)isophthalamide] | > 501 | > 5000 | 
Cc1csc(CN(C)C(=O)c2cccc(C(=O)N[C@@H](Cc3ccccc3)[C@H](O)CNCc3cc(CNS(C)(=O)=O)cc(C(C)C)c3)c2)n1 [Compound 175, N1-((2S,3R)-3-hydroxy-4-(3-isopropyl-5-(methylsulfonamidomethyl)benzylamino)-1-phenylbutan-2-yl)-N3-methyl-N3-((4-methylthiazol-2-yl)methyl)isophthalamide] | > 501 | > 5000 | 
Cc1csc(CN(C)C(=O)c2cccc(C(=O)N[C@@H](Cc3ccccc3)[C@H](O)CNCc3cc(C#N)cc(C(C)C)c3)c2)n1 [Compound 248, N1-((2S,3R)-4-(3-cyano-5-isopropylbenzylamino)-3-hydroxy-1-phenylbutan-2-yl)-N3-methyl-N3-((4-methylthiazol-2-yl)methyl)isophthalamide] |  | < 1000 | < 300
CC(=O)c1cccc(CNC[C@@H](O)[C@H](Cc2ccccc2)NC(=O)c2cc(C(=O)N[C@H](C)c3ccccc3)cc(N(C)S(C)(=O)=O)c2)c1 [Compound 126, N1-((2S,3R)-4-(3-acetylbenzylamino)-3-hydroxy-1-phenylbutan-2-yl)-5-(N-methylmethylsulfonamido)-N3-((R)-1-phenylethyl)isophthalamide] | < 300 | < 1000 | 
Cc1csc(CN(C)C(=O)c2cccc(C(=O)N[C@@H](Cc3ccccc3)[C@H](O)CNCc3cccc(C(C)Cl)c3)c2)n1 (stereo partly drawn) [Compound 173, N1-((2S,3R)-4-(3-(1-chloroethyl)benzylamino)-3-hydroxy-1-phenylbutan-2-yl)-N3-methyl-N3-((4-methylthiazol-2-yl)methyl)isophthalamide] | < 300 | < 1000 | 
Cc1csc(CN(C)C(=O)c2cccc(C(=O)N[C@@H](Cc3ccccc3)[C@H](O)CNCc3cncc(F)c3)c2)n1 [Compound 225, N1-((2S,3R)-4-((5-fluoropyridin-3-yl)methylamino)-3-hydroxy-1-phenylbutan-2-yl)-N3-methyl-N3-((4-methylthiazol-2-yl)methyl)isophthalamide] |  | 1000 to 5000 | < 300
Cc1csc(CN(C)C(=O)c2cccc(C(=O)N[C@@H](Cc3ccccc3)[C@H](O)CNCc3cc(F)cc(C(F)(F)F)c3)c2)n1 [Compound 28, N1-((2S,3R)-4-(3-fluoro-5-(trifluoromethyl)benzylamino)-3-hydroxy-1-phenylbutan-2-yl)-N3-methyl-N3-((4-methylthiazol-2-yl)methyl)isophthalamide] | < 300 | < 1000 | 
Cc1csc(CN(C)C(=O)c2cccc(C(=O)N[C@@H](Cc3ccccc3)[C@H](O)CNCc3cncc(C(C)(C)F)c3)c2)n1 [Compound 92, N1-((2S,3R)-4-((5-(2-fluoropropan-2-yl)pyridin-3-yl)methylamino)-3-hydroxy-1-phenylbutan-2-yl)-N3-methyl-N3-((4-methylthiazol-2-yl)methyl)isophthalamide] | < 300 | < 1000 | 
C=C(C)c1cncc(CNC[C@@H](O)[C@H](Cc2ccccc2)NC(=O)c2cccc(C(=O)N(C)Cc3nc(C)cs3)c2)c1 [Compound 22, N1-((2S,3R)-3-hydroxy-1-phenyl-4-((5-(prop-1-en-2-yl)pyridin-3-yl)methylamino)butan-2-yl)-N3-methyl-N3-((4-methylthiazol-2-yl)methyl)isophthalamide] | < 300 | < 1000 | 
COc1cccc(CNC[C@@H](O)[C@H](Cc2ccccc2)NC(=O)c2cc(F)cc(C(=O)N(C)Cc3nc(C)cs3)c2)c1 [Compound 4, 5-fluoro-N1-((2S,3R)-3-hydroxy-4-(3-methoxybenzylamino)-1-phenylbutan-2-yl)-N3-methyl-N3-((4-methylthiazol-2-yl)methyl)isophthalamide] | < 300 | < 1000 | 
Cc1csc(CN(C)C(=O)c2cccc(C(=O)N[C@@H](Cc3ccccc3)[C@H](O)CNCc3cc(NS(C)(=O)=O)cc(C(C)C)c3)c2)n1 [Compound 119, N1-((2S,3R)-3-hydroxy-4-(3-isopropyl-5-(methylsulfonamido)benzylamino)-1-phenylbutan-2-yl)-N3-methyl-N3-((4-methylthiazol-2-yl)methyl)isophthalamide] | < 300 | < 1000 | 
